Columns and labels:
[1] = test system: cysteine peptide (Ac-RFAACAA-COOH); experiment: Direct Peptide Reactivity Assay, cysteine peptide; conditions: for % of Cysteine depletion, Avg / % of Cysteine depletion, Rep 2 / % of Cysteine depletion, Rep 3 / Reactivity Class: 1:10; for % of Cysteine depletion, Rep 1: peptide 0.02 mM : test chemical 0.2 mM (1:10); for Reactivity Class: cysteine
Description: For cysteine DPRA, an additional step was performed.
(§1) The mass spectrometric analysis was performed by use of a AB SCIEX QTRAP 5500 tandem mass spectrometry (MS/MS) system (AB SCIEX, Framingham, Mass., USA) operating in triple quadrupole positive mode (ESI+) equipped with an AB Sciex Turbo Ion Spray interface. Acquisition and analysis of data were performed with Analyst software ver. 1.6.2 (Applied Biosystems).

[2] = test system: lysine peptide (Ac-RFAAKAA-COOH); experiment: Direct Peptide Reactivity Assay, lysine peptide; conditions: for % of Lysine depletion, Avg / % of Lysine depletion, Rep 2 / % of Lysine depletion, Rep 3 / Reactivity Class: 1:50; for % of Lysine depletion, Rep 1: peptide 0.02 mM : test chemical 1 mM (1:50); for Reactivity Class: lysine
Description: as §1

For `Nc1ccc(N)cc1` [PPD, para-phenylenediamine, reference compound], the “% of Cysteine depletion, Avg” value ([1]; 20 min) was 15.1%, the “% of Cysteine depletion, Rep 2” value ([1]; 20 min) was 14% and the “% of Cysteine depletion, Rep 3” value ([1]; 20 min) was 15.2%. The “% of Cysteine depletion, Rep 1” value ([1]; 20 min) was 16.2%, the “% of Cysteine depletion, Avg” value ([1]; 24 h) was 77.6% and the “% of Cysteine depletion, Rep 2” value ([1]; 24 h) was 78%. The “% of Cysteine depletion, Rep 3” value ([1]; 24 h) was 77.2%, the “% of Cysteine depletion, Rep 1” value ([1]; 24 h) was 77.7% and the “Reactivity Class” value ([1]; 20 min) was “low and Low”. For the same compound, the “Reactivity Class” value ([1]; 24 h) was “High”, the “% of Lysine depletion, Avg” value ([2]; 20 min) was 14.6% and the “% of Lysine depletion, Rep 2” value ([2]; 20 min) was 14.4%. For the same compound, the “% of Lysine depletion, Rep 3” value ([2]; 20 min) was 14.6%, the “% of Lysine depletion, Rep 1” value ([2]; 20 min) was 14.9% and the “% of Lysine depletion, Avg” value ([2]; 24 h) was 33.3%. The “% of Lysine depletion, Rep 2” value ([2]; 24 h) was 33.1%, the “% of Lysine depletion, Rep 3” value ([2]; 24 h) was 33.9% and the “% of Lysine depletion, Rep 1” value ([2]; 24 h) was 32.8%. The “Reactivity Class” value ([2]; 20 min) was “Low” and the “Reactivity Class” value ([2]; 24 h) was “Moderate”.

Source: patent US11129782B2, “Derivatives of PPD useful for coloring hair and skin” (National University of Singapore, priority 2017, dated 2021)
